This assay has as its target T1, N-type calcium channel (NTCC) (Homo sapiens, UniProt Q00975).
T1 construct: host or cells: IMR32 cells differentiated with dibutyryl cAMP and bromodeoxyuridine
Put plainly: FLIPR calcium mobilization assay for N-type calcium channel (differentiated IMR32 cells). The assay is classed as cell-based. The note with it: about 1.0 μM or less; calcium mobilization and/or electrophysiological assay. The method in brief:
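Human IMR32 cells differentiated 8 days (1 mM dibutyryl cAMP, 2.5 μM BrdU), pre-stimulated 1 h with 90 mM KCl plus compound (~846 pM–17 μM) and 5 μM nitrendipine, Fluo-4 loaded. FLIPR read basal fluorescence 315 s, then 90 mM KCl agonist added and fluorescence recorded 45 s; non-linear regression.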
Background: Calcium assays in cells follow changes in intracellular calcium, usually with a dye or a luminescent sensor.

For 35 compounds, IC50 results are on record in patent publication US20090298878A1, “OXIME COMPOUNDS AND THE USE THEREOF” (priority 2006, published 2009).

Bounds are passed on as bounds.

T1 sequence (Q00975 whole entry): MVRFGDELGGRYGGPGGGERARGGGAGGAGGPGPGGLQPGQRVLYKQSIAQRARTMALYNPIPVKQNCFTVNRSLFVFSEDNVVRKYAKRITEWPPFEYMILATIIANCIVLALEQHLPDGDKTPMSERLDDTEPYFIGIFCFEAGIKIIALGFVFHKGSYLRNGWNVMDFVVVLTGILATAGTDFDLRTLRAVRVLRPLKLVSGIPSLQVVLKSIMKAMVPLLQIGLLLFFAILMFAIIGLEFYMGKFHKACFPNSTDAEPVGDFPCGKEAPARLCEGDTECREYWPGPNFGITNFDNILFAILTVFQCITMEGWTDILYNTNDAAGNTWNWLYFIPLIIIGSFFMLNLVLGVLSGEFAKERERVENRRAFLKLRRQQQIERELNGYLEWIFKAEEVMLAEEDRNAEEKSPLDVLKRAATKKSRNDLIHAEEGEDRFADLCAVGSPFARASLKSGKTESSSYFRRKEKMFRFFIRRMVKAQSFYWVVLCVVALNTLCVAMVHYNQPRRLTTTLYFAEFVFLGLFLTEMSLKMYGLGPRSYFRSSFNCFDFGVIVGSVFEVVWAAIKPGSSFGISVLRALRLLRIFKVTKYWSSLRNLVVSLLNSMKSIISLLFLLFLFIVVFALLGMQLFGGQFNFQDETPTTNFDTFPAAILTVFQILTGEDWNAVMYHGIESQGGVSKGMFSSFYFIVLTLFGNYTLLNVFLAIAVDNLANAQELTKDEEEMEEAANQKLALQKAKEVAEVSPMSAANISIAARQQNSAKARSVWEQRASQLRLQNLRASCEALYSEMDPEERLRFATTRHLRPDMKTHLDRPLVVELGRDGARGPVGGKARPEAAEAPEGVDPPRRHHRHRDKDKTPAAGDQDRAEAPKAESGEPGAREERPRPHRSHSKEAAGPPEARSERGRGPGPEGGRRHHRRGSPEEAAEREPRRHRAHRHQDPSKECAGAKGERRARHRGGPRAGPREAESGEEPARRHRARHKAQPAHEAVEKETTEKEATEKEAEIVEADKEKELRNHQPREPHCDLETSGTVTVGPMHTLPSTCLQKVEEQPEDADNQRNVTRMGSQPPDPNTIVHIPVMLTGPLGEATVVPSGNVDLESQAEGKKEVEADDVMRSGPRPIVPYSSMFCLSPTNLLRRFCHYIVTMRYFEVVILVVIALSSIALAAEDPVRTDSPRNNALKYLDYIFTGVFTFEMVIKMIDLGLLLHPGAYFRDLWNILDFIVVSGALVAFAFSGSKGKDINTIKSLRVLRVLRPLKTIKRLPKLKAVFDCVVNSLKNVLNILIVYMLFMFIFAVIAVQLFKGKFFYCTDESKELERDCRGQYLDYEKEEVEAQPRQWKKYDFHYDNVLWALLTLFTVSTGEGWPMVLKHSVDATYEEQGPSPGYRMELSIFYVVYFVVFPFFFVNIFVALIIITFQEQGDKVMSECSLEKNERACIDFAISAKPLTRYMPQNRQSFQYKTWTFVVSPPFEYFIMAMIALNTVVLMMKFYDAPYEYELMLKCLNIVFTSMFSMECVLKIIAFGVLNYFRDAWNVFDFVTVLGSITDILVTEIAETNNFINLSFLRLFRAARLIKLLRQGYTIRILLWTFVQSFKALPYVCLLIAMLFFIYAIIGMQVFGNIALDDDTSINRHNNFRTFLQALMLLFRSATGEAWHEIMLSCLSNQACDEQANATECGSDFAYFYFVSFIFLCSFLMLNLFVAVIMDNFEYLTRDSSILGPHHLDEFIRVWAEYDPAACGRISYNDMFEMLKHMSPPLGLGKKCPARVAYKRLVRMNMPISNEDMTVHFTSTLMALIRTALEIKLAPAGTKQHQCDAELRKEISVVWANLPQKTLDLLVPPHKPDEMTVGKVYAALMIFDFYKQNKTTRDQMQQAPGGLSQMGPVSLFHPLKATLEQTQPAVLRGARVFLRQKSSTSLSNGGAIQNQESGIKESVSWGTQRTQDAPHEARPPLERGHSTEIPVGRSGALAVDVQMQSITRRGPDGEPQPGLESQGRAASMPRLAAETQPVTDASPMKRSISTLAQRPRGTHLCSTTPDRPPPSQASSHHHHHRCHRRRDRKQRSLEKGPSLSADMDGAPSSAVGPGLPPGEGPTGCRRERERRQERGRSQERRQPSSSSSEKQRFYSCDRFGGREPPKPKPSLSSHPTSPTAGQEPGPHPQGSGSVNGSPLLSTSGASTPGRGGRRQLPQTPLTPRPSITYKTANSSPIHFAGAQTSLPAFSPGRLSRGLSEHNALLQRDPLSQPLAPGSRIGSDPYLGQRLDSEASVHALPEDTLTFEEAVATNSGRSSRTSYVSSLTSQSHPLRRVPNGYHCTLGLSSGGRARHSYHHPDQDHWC

As usually defined, the IC50 is the concentration at which inhibition is half-maximal. Take `O=S(=O)(c1cccc(C(F)(F)F)c1)N1CCC(=NOCc2cccc(C(F)(F)F)c2)CC1` [Example 56, 1-(3-Trifluoromethylbenzenesulfonyl)piperidin-4-one O-(3-trifluoromethylbenzyl)oxime]: the IC50 is no more than 1000 nM. `O=S(=O)(c1ccc(OC(F)(F)F)cc1)N1CCC(=NOC(c2ccc(F)cc2)C2CC2)CC1` (centres unmarked) [Example 306, 1-(4-(Trifluoromethoxy)phenylsulfonyl)piperidin-4-one O-cyclopropyl(4-fluorophenyl)methyl oxime]: the IC50 was no more than 1000 nM. The result for `N#Cc1cccc(C(ON=C2CCN(S(=O)(=O)c3ccc(OC(F)(F)F)cc3)CC2)c2ccccn2)c1` (centres unmarked) [Example 271, 3-(Pyridin-2-yl(1-(4-(trifluoromethoxy)phenylsulfonyl)piperidin-4-ylideneaminooxy)methyl)benzonitrile] reads no more than 1000 nM; that for `N#Cc1cccc(C(COc2ccc(F)cc2)ON=C2CCN(S(=O)(=O)c3ccc(OC(F)(F)F)cc3)CC2)c1` (centres unmarked) [Example 304, 3-(2-(4-Fluorophenoxy)-1-(1-(4-(trifluoromethoxy)phenylsulfonyl)piperidin-4-ylideneaminooxy)ethyl)benzonitrile], no more than 1000 nM; that for `CN(C)c1cccc(CON=C2CCN(S(=O)(=O)c3ccc(OC(F)(F)F)cc3)CC2)c1` [Example 128, 1-(4-Trifluoromethoxybenzenesulfonyl)piperidin-4-one O-(3-dimethylaminobenzyl)oxime], no more than 1000 nM. In the case of `CC(ON=C1CCN(S(=O)(=O)c2cccc(C(F)(F)F)c2)CC1)c1ccccc1` (centres unmarked) [Example 276, 1-(3-(Trifluoromethyl)phenylsulfonyl)piperidin-4-one O-1-phenylethyl oxime] it was no more than 1000 nM; in that of `N#Cc1ccccc1CON=C1CCN(S(=O)(=O)c2ccc(OC(F)(F)F)cc2)CC1` [Example 120, 2-[1-(4-Trifluoromethoxybenzenesulfonyl)piperidin-4-ylideneaminooxymethyl]benzonitrile], no more than 1000 nM; in that of `COc1ccc(S(=O)(=O)N2CCC(=NOC(c3ccc(F)cc3)c3ccc(F)cc3)CC2)cc1OC` [Example 268, 1-(3,4-Dimethoxyphenylsulfonyl)piperidin-4-one O-bis(4-fluorophenyl)methyl oxime], no more than 1000 nM. In the case of `O=S(=O)(c1ccc(OC(F)(F)F)cc1)N1CCC(=NOCC2Oc3ccccc3O2)CC1` [Example 265, 1-(4-(Trifluoromethoxy)phenylsulfonyl)piperidin-4-one O-benzo[d][1,3]dioxol-2-ylmethyl oxime] it was no more than 1000 nM. Take `N#Cc1cccc(S(=O)(=O)N2CCC(=NOC(c3ccc(F)cc3)c3ccc(F)cc3)CC2)c1` [Example 267, 3-(4-(Bis(4-fluorophenyl)methoxyimino)piperidin-1-ylsulfonyl)benzonitrile]: the IC50 was no more than 1000 nM. In the case of `O=S(=O)(c1ccc(OC(F)(F)F)cc1)N1CCC(=NOC(c2cccc(C(F)(F)F)c2)C2CC2)CC1` (centres unmarked) [Example 307, 1-(4-(Trifluoromethoxy)phenylsulfonyl)piperidin-4-one O-cyclopropyl(3-(trifluoromethyl)phenyl)methyl oxime] it was no more than 1000 nM. In the case of `COCCOc1ccc(S(=O)(=O)N2CCC(=NOCc3cccc(C(F)(F)F)c3)CC2)cc1` [Example 94, 1-[4-(2-Methoxyethoxy)benzenesulfonyl]piperidin-4-one O-(3-trifluoromethylbenzyl)oxime] it was no more than 1000 nM; in that of `COCC(ON=C1CCN(S(=O)(=O)c2ccc(OC(F)(F)F)cc2)CC1)c1cccc(C#N)c1` (centres unmarked) [Example 273, 3-(2-Methoxy-1-(1-(4-(trifluoromethoxy)phenylsulfonyl)piperidin-4-ylideneaminooxy)ethyl)benzonitrile], no more than 1000 nM. On to `O=S(=O)(c1cccc(Cl)c1)N1CCC(=NOC(c2ccc(F)cc2)c2ccc(F)cc2)CC1` [Example 292, 1-(3-Chlorophenylsulfonyl)piperidin-4-one O-bis(4-fluorophenyl)methyl oxime], for which the IC50 was no more than 1000 nM. The result for `O=S(=O)(c1ccccc1)N1CCC(=NOCc2cccc(C(F)(F)F)c2)CC1` [Example 51, 1-Benzenesulfonylpiperidin-4-one O-(3-trifluoromethylbenzyl)oxime] reads no more than 1000 nM; that for `O=C(CCC(c1ccc(F)cc1)c1ccc(F)cc1)N1CCC(=NOCc2cccc(C(F)(F)F)c2)CC1` [Example 29, 1-[4,4-Bis-(4-fluorophenyl)butyryl]piperidin-4-one O-(3-trifluoromethylbenzyl)oxime], no more than 1000 nM. `O=S(=O)(c1ccc(NC2CC2)nc1)N1CCC(=NOCc2cccc(C(F)(F)F)c2)CC1` [Example 321, 1-(6-Cyclopropylaminopyridine-3-sulfonyl)piperidin-4-one O-(3-trifluoromethylbenzyl)oxime]: the IC50 is no more than 1000 nM.

As for `O=S(=O)(c1cc(F)cc(F)c1)N1CCC(=NOC(c2ccc(F)cc2)c2ccc(F)cc2)CC1` [Example 244, 1-(3,5-Difluorophenylsulfonyl)piperidin-4-one O-bis(4-fluorophenyl)methyl oxime], the IC50 was no more than 1000 nM. For `N#Cc1cccc(C(ON=C2CCN(S(=O)(=O)c3ccc(OC(F)(F)F)cc3)CC2)c2ccncc2)c1` (centres unmarked) [Example 269, 3-(Pyridin-4-yl(1-(4-(trifluoromethoxy)phenylsulfonyl)piperidin-4-ylideneaminooxy)methyl)benzonitrile], the IC50 was no more than 1000 nM. The result for `COc1ccc(CON=C2CCN(S(=O)(=O)c3ccc(OC(F)(F)F)cc3)CC2)cn1` [Example 144, 1-(4-Trifluoromethoxybenzenesulfonyl)piperidin-4-one O-(6-methoxypyridin-3-ylmethyl)oxime] reads no more than 1000 nM; that for `CCCCc1ccc(S(=O)(=O)N2CCC(=NOC(c3ccc(F)cc3)c3ccc(F)cc3)CC2)cc1` [Example 231, 1-(4-Butylphenylsulfonyl)piperidin-4-one O-bis(4-fluorophenyl)methyl oxime], no more than 1000 nM.

Regarding `O=S(=O)(c1ccccn1)N1CCC(=NOC(c2ccc(F)cc2)c2ccc(F)cc2)CC1` [Example 288, 1-(Pyridin-2-ylsulfonyl)piperidin-4-one O-bis(4-fluorophenyl)methyl oxime], the IC50 was no more than 1000 nM. The result for `COc1ccccc1S(=O)(=O)N1CCC(=NOC(c2ccc(F)cc2)c2ccc(F)cc2)CC1` [Example 238, 1-(2-Methoxyphenylsulfonyl)piperidin-4-one O-bis(4-fluorophenyl)methyl oxime] reads no more than 1000 nM; that for `CC(C)OCC(ON=C1CCN(S(=O)(=O)c2ccc(OC(F)(F)F)cc2)CC1)c1cccc(C#N)c1` (centres unmarked) [Example 303, 3-(2-Isopropoxy-1-(1-(4-(trifluoromethoxy)phenylsulfonyl)piperidin-4-ylideneaminooxy)ethyl)benzonitrile], no more than 1000 nM. The result for `O=S(=O)(c1cccc2cccnc12)N1CCC(=NOC(c2ccc(F)cc2)c2ccc(F)cc2)CC1` [Example 251, 1-(Quinolin-8-ylsulfonyl)piperidin-4-one O-bis(4-fluorophenyl)methyl oxime] reads no more than 1000 nM; that for `N#Cc1cccc(CON=C2CCN(S(=O)(=O)c3ccc(C(F)(F)F)cc3)CC2)c1` [Example 280, 3-((1-(4-(Trifluoromethyl)phenylsulfonyl)piperidin-4-ylideneaminooxy)methyl)benzonitrile], no more than 1000 nM. In the case of `O=S(=O)(c1ccsc1)N1CCC(=NOC(c2ccc(F)cc2)c2ccc(F)cc2)CC1` [Example 287, 1-(Thiophen-3-ylsulfonyl)piperidin-4-one O-bis(4-fluorophenyl)methyl oxime] it was no more than 1000 nM. Regarding `O=S(=O)(c1ccc(OC(F)(F)F)cc1)N1CCC(=NOCc2ccc(Cl)cn2)CC1` [Example 127, 1-(4-Trifluoromethoxybenzenesulfonyl)piperidin-4-one O-(5-chloropyridin-2-ylmethyl)oxime], the IC50 is no more than 1000 nM. In the case of `N#Cc1cccc(CON=C2CCN(S(=O)(=O)c3ccc(OC(F)(F)F)cc3)CC2)c1` [Example 121, 3-[1-(4-Trifluoromethoxybenzenesulfonyl)piperidin-4-ylideneaminooxymethyl]benzonitrile] it was no more than 1000 nM.

`N#Cc1ccccc1S(=O)(=O)N1CCC(=NOC(c2ccc(F)cc2)c2ccc(F)cc2)CC1` [Example 229, 2-(4-(Bis(4-fluorophenyl)methoxyimino)piperidin-1-ylsulfonyl)benzonitrile]: the IC50 was no more than 1000 nM. For `N#Cc1cc(CON=C2CCN(S(=O)(=O)c3ccc(OC(F)(F)F)cc3)CC2)ccc1F` [Example 108, 2-Fluoro-5-[1-(4-trifluoromethoxybenzenesulfonyl)piperidin-4-ylideneaminooxymethyl]benzonitrile], the half-maximal inhibitory concentration (IC50) is no more than 1000 nM. With `CN1CCOc2cc(S(=O)(=O)N3CCC(=NOC(c4ccc(F)cc4)c4ccc(F)cc4)CC3)ccc21` [Example 237, 1-(4-Methyl-3,4-dihydro-2H-benzo[b][1,4]oxazin-7-ylsulfonyl)piperidin-4-one O-bis(4-fluorophenyl)methyl oxime], the IC50 was no more than 1000 nM. Take `O=c1cc(CON=C2CCN(S(=O)(=O)c3ccc(OC(F)(F)F)cc3)CC2)ccn1Cc1ccc(F)cc1` [Example 296, 1-(4-Fluorobenzyl)-4-((1-(4-(trifluoromethoxy)phenylsulfonyl)piperidin-4-ylideneaminooxy)methyl)pyridin-2(1H)-one]: the IC50 was no more than 1000 nM.

As to `O=S(=O)(c1cccc(OC(F)(F)F)c1)N1CCC(=NOCc2cccc(C(F)(F)F)c2)CC1` [Example 59, 1-(3-Trifluoromethoxybenzenesulfonyl)piperidin-4-one O-(3-trifluoromethylbenzyl)oxime], the IC50 is no more than 1000 nM. In the case of `COC(=O)c1cccc(S(=O)(=O)N2CCC(=NOC(c3ccc(F)cc3)c3ccc(F)cc3)CC2)c1` [Example 286, Methyl 3-(4-(bis(4-fluorophenyl)methoxyimino)piperidin-1-ylsulfonyl)benzoate] it was no more than 1000 nM.
